Source: patent US11299462B2, “Crystal form of oxopicolinamide derivative and preparation method therefor” (JIANGSU HENGRUI MEDICINE CO., LTD., priority 2018, dated 2022)

Experiments:
[1] = Study of the stability of the crystal forms (HPLC purity and XRPD crystal form, Day 7); format: physicochemical; conditions: for HPLC purity change / XRPD peaks / crystal form stability / crystallinity: 25° C.-60% RH and 40° C.-75% RH; for Purity %: HPLC purity, Day 7, spread flat in the air; for Crystal form: XRPD, Day 7; for chemical stability: conclusion from Table 7
Procedure: Example 13. Study of the Stability of the Crystal Forms
The samples of crystal forms A, B, C, D and F were spread flat in the air to test sample stability under conditions of 4° C., 25° C.-60% relative humidity (RH) and 40° C.-75% relative humidity (RH). The sampling was carried out on Day 7. The HPLC purity and crystal form stability of the samples were studied.
The XRPD spectrums of the samples of crystal forms A, B, C, D and F under conditions of 25° C.-60% RH and 40° C.-75% RH are shown in FIGS. 7 to 16.
It can be seen that the stability of crystal forms B and F is better than that of crystal forms A, C and D.

human blood = experiment: In vitro anticoagulant effect on human blood (APTT detection in plasma); format: biochemical
Procedure: Test Example 2: Determination of In Vitro Anticoagulant Effect of the Compound of the Present Invention on Human Blood
1. Experimental Materials
Plasma: human blood was collected in blood collection tubes free of anticoagulant, and then 3.8% sodium citrate (volume ratio 1:9) was added. The tubes were centrifuged at 2500 rpm for 10 minutes at room temperature, and then the plasma was collected and stored at −80° C.;
Reagents: APTT reagent (Activated partial thromboplastin time assay kit, SIEMENS, No. B4218-1), calcium chloride solution;
Instrument: coagulation instrument (SYSMEX, CA-500).
The separated plasma was melted at room temperature and mixed well. 10000 μM of test compound dissolved in 100% DMSO was diluted to 3000, 300, 200, 150, 75, 30, 10, 3, 0.3 μM with 100% DMSO, and the blank was 100% DMSO. The reagent, plasma, and compounds were placed in corresponding positions in the coagulation instrument, and APTT detection of the compound was carried out.
Curve fitting was carried out by Prism, and CT2 (i.e., the concentration of the compound corresponding to 2 times the APTT of the blank control) was calculated. CT2=2.0.

Compound | HPLC purity change ([1]; 4° C.) | XRPD peaks ([1]; 4° C.) | crystal form stability ([1]; 4° C.) | Purity % ([1]; 4° C.) [%] | Purity % ([1]; 25° C. 60% RH) [%] | Purity % ([1]; 40° C. 75% RH) [%] | Crystal form ([1]; 4° C.) | Crystal form ([1]; 25° C. 60% RH) | Crystal form ([1]; 40° C. 75% RH) | chemical stability [1] | crystallinity [1] | XRPD ([1]; 40° C.-75% RH) | CT2 (concentration of the compound corresponding to 2 times the APTT of the blank control) (human blood) | XRPD peaks [1]
COc1cn([C@@H](Cc2ccccc2)C(=O)Nc2ccc(C(=O)O)cc2)c(=O)cc1-c1cc(Cl)ccc1C(C)=O [Crystal form B, (S)-4-(2-(4-(2-Acetyl-5-chlorophenyl)-5-methoxy-2-oxopyridin-1(2H)-yl)-3-phenylpropanamido)benzoic acid] | changed slightly | have not changed | stable | 99.13 | 99.14 | 99.13 | Same | Same | Same | good | – | – | – | –
COc1cn([C@@H](Cc2ccccc2)C(=O)Nc2ccc(C(=O)O)cc2)c(=O)cc1-c1cc(Cl)ccc1C(C)=O [compound of formula (I), (S)-4-(2-(4-(2-acetyl-5-chlorophenyl)-5-methoxy-2-oxopyridin-1(2H)-yl)-3-phenylpropanamido) benzoic acid] | – | – | – | – | – | – | – | – | – | – | – | – | 2.0 | –
COc1cn([C@@H](Cc2ccccc2)C(=O)Nc2ccc(C(=O)O)cc2)c(=O)cc1-c1cc(Cl)ccc1C(C)=O [Crystal form A, (S)-4-(2-(4-(2-Acetyl-5-chlorophenyl)-5-methoxy-2-oxopyridin-1(2H)-yl)-3-phenylpropanamido)benzoic acid] | – | – | – | 98.94 | 98.99 | 99.01 | Same | Different | Different | good | has decreased | – | – | have changed with the loss of some peak characters

The next lines start with results.

HPLC purity change ([1]; 4° C.) | XRPD peaks ([1]; 4° C.) | crystal form stability ([1]; 4° C.) | Purity % ([1]; 4° C.) [%] | Purity % ([1]; 25° C. 60% RH) [%] | Purity % ([1]; 40° C. 75% RH) [%] | Crystal form ([1]; 4° C.) | Crystal form ([1]; 25° C. 60% RH) | Crystal form ([1]; 40° C. 75% RH) | chemical stability [1] | crystallinity [1] | XRPD ([1]; 40° C.-75% RH) | Compound | CT2 (concentration of the compound corresponding to 2 times the APTT of the blank control) (human blood) | XRPD peaks [1]
– | – | – | 99.28 | 99.29 | 99.31 | Same | Same | Different | good | – | has also changed | COc1cn([C@@H](Cc2ccccc2)C(=O)Nc2ccc(C(=O)O)cc2)c(=O)cc1-c1cc(Cl)ccc1C(C)=O [Crystal form C, (S)-4-(2-(4-(2-Acetyl-5-chlorophenyl)-5-methoxy-2-oxopyridin-1(2H)-yl)-3-phenylpropanamido)benzoic acid] | – | –
– | – | – | 98.4 | 98.15 | 98.33 | Same | Different | Different | good | has decreased | – | COc1cn([C@@H](Cc2ccccc2)C(=O)Nc2ccc(C(=O)O)cc2)c(=O)cc1-c1cc(Cl)ccc1C(C)=O [Crystal form D, (S)-4-(2-(4-(2-acetyl-5-chlorophenyl)-5-methoxy-2-oxopyridin-1(2H)-yl)-3-phenylpropanamido)benzoic acid] | – | have changed with the loss of some peak characters
changed slightly | have not changed | stable | 99.17 | 99.33 | 99.21 | Same | Same | Same | good | – | – | COc1cn([C@@H](Cc2ccccc2)C(=O)Nc2ccc(C(=O)O)cc2)c(=O)cc1-c1cc(Cl)ccc1C(C)=O [Crystal form F, (S)-4-(2-(4-(2-Acetyl-5-chlorophenyl)-5-methoxy-2-oxopyridin-1(2H)-yl)-3-phenylpropanamido)benzoic acid] | – | –
